Several values for one entry are separate records, joined by “and”; a condition that tells them apart may be missing. Identical values can stand only once.
Legend:
Type in all cases: in vivo
[1] = system: TRZAS, Triticum aestivum (spring wheat); assay: Greenhouse postemergence phytotoxicity on crop (visual injury, 20-22 d)
Text: (§1) Greenhouse Trial Methodology—Evaluation of Postemergence Herbicidal Effect
(§2) Seeds of the desired test plant species were planted in a 90:10% v/v (volume/volume) mixture of PRO-MIX® BX (Premier Tech Horticulture, Quakertown, Pa., USA) and PROFILE®GREENS GRADE™ (Profile Products LLC, Buffalo Grove, Ill., USA) planting mixture, which typically has a pH of 5.2 to 6.2 and an organic matter content of at least 50 percent, in plastic pots with a surface area of 103.2 square centimeters (cm^2). In some aspects, to help ensure good germination and healthy plants, a fungicide treatment and/or other chemical or physical treatment was applied. The plants were grown for 7-36 days (d) in a greenhouse with an approximate 14-hour (h) photoperiod which was maintained at about 23° C. during the day and 22° C. during the night. Nutrients and water were added on a regular basis and supplemental lighting was provided with overhead metal halide 1000-Watt lamps as necessary. The plants were employed for testing when they reached the second or third true leaf stage.
(§3) Emulsifiable concentrates of each of each pyridine carboxylate herbicide (Compound A or Compound B) were prepared at 100 grams acid equivalent per liter (g ae/L). The emulsifiable concentrates also included a safener, cloquintocet-mexyl, at 120 grams active ingredient per liter (g ai/L), unless otherwise noted below. An aliquot of each emulsifiable concentrate was placed in a 25 mL glass vial and diluted with an aqueous mixture of 1.25% (v/v) ACTIROB® B esterified rapeseed oil (Bayer Crop Science, Research Triangle Park, N.C., USA) or MSO® Concentrate with LECI-TECH® methylated soybean oil (Loveland Products, Loveland, Colo., USA) to obtain concentrated stock solutions at the highest application rate for each herbicide, based upon a 12 milliliter (mL) application volume at a rate of 187 liters per hectare (L/ha). The concentrated stock solutions were further diluted with an aqueous mixture of 1.25% v/v ACTIROB® B or MSO® Concentrate with LECI-TECH® to obtain stock solutions at reduced application rates for each herbicide. Spray solutions of the herbicide combinations (Compound A or Compound B plus PS-II herbicide and optional HPPD herbicide) were prepared by adding weighed amounts or aliquots of the PS-II herbicide and optional HPPD herbicide to the stock solutions of Compound A or Compound B to form 12-mL spray solutions in two- or three-way combinations.
(§4) The spray solutions were applied to the plant material with an overhead Mandel track sprayer equipped with 8002E nozzles calibrated to deliver 187 L/ha over an application area of 0.503 square meters (m^2) at a spray height of 18 inches ([…] centimeters (cm)) above the average plant canopy. Control plants were sprayed in the same manner with the solvent blank. All pyridine carboxylate herbicide (component a) application rates are given as “g ae/ha” and all PS II inhibitor herbicide (component b) and HPPD inhibitor herbicide (component c) application rates are given as “g ai/ha.”
(§5) The treated plants and control plants were placed in a greenhouse as described above and watered by sub-irrigation to prevent wash-off of the test compounds. After 20-22 d, the condition of the test plants as compared with that of the control plants was determined visually and scored on a scale of 0 to 100 percent where 0 corresponds to no injury and 100 corresponds to complete kill.

[2] = system: ZEAMX, Zea mays (maize); assay: as above; conditions: Compound A 10 g/ha
Text: as §1, §2, §3, §4, §5

[3] = system: HORVS, Hordeum vulgare (spring barley); assay: as above
Text: as §1, §2, §3, §4, §5

[4] = system: SASKR, Salsola kali (Russian thistle); assay: Greenhouse postemergence herbicidal effect (visual injury, 20-22 d)
Text: as §1, §2, §3, §4, §5

[5] = system: AVEFA, Avena fatua (wild oat); assay: as above
Text: as §1, §2, §3, §4, §5

[6] = system: HELAN, Helianthus annuus (common sunflower); assay: as above; conditions: Compound A 10 g/ha, without cloquintocet-mexyl safener
Text: as §1, §2, §3, §4, §5

[7] = system: VIOTR, Viola tricolor (wild pansy); assay: as above
Text: as §1, §2, §3, §4, §5

[8] = system: SORVU, Sorghum vulgare (grain sorghum); assay: as above
Text: as §1, §2, §3, §4, §5

[9] = system: BRSNN, Brassica napus (spring rape); assay: as above
Text: as §1, §2, §3, §4, §5

[10] = system: DIGSA, Digitaria sanguinalis (large crabgrass); assay: as above; conditions: Compound A 10 g/ha, without cloquintocet-mexyl safener
Text: as §1, §2, §3, §4, §5

[11] = system: AMARE, Amaranthus retroflexus (pigweed); assay: as above
Text: as §1, §2, §3, §4, §5

[12] = system: POLCO, Polygonum convolvulus (wild buckwheat); assay: as above; conditions: POLCO, Compound A 10 g/ha
Text: as §1, §2, §3, §4, §5

[13] = system: SETFA, Setaria faberi (giant foxtail); assay: as above; conditions: SETFA, Compound A 10 g/ha
Text: as §1, §2, §3, §4, §5

[14] = system: KCHSC, Kochia scoparia (kochia); assay: as above
Text: as §1, §2, §3, §4, §5

[15] = system: BRSNW, Brassica napus (winter rape); assay: as above
Text: as §1, §2, §3, §4, §5

[16] = system: IPOHE, Ipomoea hederacea (ivyleaf morningglory); assay: as above
Text: as §1, §2, §3, §4, §5

[17] = system: GLXMA, Glycine max (soybean); assay: as above; conditions: for % visual injury, Obs: GLXMA, Compound A 10 g/ha
Text: as §1, §2, §3, §4, §5

[18] = system: MATCH, Matricaria chamomilla (wild chamomile); assay: as above
Text: as §1, §2, §3, §4, §5

[19] = system: CYPES, Cyperus esculentus (nutsedge); assay: as above; conditions: Compound A 10 g/ha
Text: as §1, §2, §3, §4, §5

[20] = without cloquintocet-mexyl safener

N#CCOC(=O)c1nc(-c2ccc3cc[nH]c3c2F)c(F)c(N)c1Cl [Compound A, cyanomethyl 4-amino-3-chloro-5-fluoro-6-(7-fluoro-1H-indol-6-yl)pyridine-2-carboxylate]
visual injury ([1]; 7.5 g ae/ha alone): 0%
visual injury ([1]; 10 g ae/ha alone): 0%
% visual injury, Obs ([1]; TRZAS, Compound A 10 g/ha): 3%
% visual injury, Obs [2]: 0%
visual injury ([3]; 7.5 g ae/ha alone): 0% and 8%
visual injury ([3]; 10 g ae/ha alone): 0%
visual injury ([4]; 7.5 g ae/ha alone): 60% and 45%
visual injury ([4]; 10 g ae/ha alone): 63% and 60%
visual injury ([5]; 7.5 g ae/ha alone): 0%
visual injury ([5]; 10 g ae/ha alone): 0%
% visual injury, Obs ([5]; AVEFA, Compound A 10 g/ha, without cloquintocet-mexyl safener): 0%
% visual injury, Obs [6]: 100%
visual injury ([7]; 7.5 g ae/ha alone): 45%
visual injury ([7]; 10 g ae/ha alone): 15%
% visual injury, Obs ([7]; VIOTR, Compound A 10 g/ha, without cloquintocet-mexyl safener): 15%
visual injury ([8]; 7.5 g ae/ha alone): 0%
visual injury ([8]; 10 g ae/ha alone): 0%
% visual injury, Obs ([8]; SORVU, Compound A 10 g/ha, without cloquintocet-mexyl safener): 0%
visual injury ([9]; 10 g ae/ha alone): 60% and 45% and 73%
% visual injury, Obs ([9]; BRSNN, Compound A 10 g/ha): 65%
% visual injury, Obs [10]: 8%
visual injury ([11]; 7.5 g ae/ha alone): 78% and 70% and 90%
visual injury ([11]; 10 g ae/ha alone): 73% and 90% and 85%
% visual injury, Obs ([11]; AMARE, Compound A 10 g/ha): 88%
% visual injury, Obs [12]: 93%
% visual injury, Obs [12, 20]: 78%
% visual injury, Obs [13]: 80%
% visual injury, Obs [13, 20]: 0%
visual injury ([14]; 7.5 g ae/ha alone): 63% and 50% and 65% and 70%
visual injury ([14]; 10 g ae/ha alone): 63% and 58% and 70%
% visual injury, Obs ([14]; KCHSC, Compound A 10 g/ha, without cloquintocet-mexyl safener): 88%
visual injury ([15]; 7.5 g ae/ha alone): 35% and 63%
visual injury ([15]; 10 g ae/ha alone): 43% and 68% and 40%
% visual injury, Obs ([15]; BRSNW, Compound A 10 g/ha, without cloquintocet-mexyl safener): 65%
visual injury ([16]; 7.5 g ae/ha alone): 20%
visual injury ([16]; 10 g ae/ha alone): 25%
% visual injury, Obs ([16]; IPOHE, Compound A 10 g/ha, without cloquintocet-mexyl safener): 15%
visual injury ([17]; 7.5 g ae/ha alone): 80%
visual injury ([17]; 10 g ae/ha alone): 90%
% visual injury, Obs [17]: 90%
% visual injury, Obs [17, 20]: 85%
visual injury ([18]; 7.5 g ae/ha alone): 20% and 18% and 10%
visual injury ([18]; 10 g ae/ha alone): 30% and 20%
% visual injury, Obs [19]: 8%
% visual injury, Obs [19, 20]: 0%

Source: US20220007644A1, “COMPOSITIONS COMPRISING PYRIDINE CARBOXYLATE HERBICIDES WITH PHOTOSYSTEM II AND OPTIONAL HPPD INHIBITOR HERBICIDES” (Corteva Agriscience LLC, priority 2018, published 2022)
